One experiment concerns the target BRD4 (Homo sapiens, UniProt O60885). Put plainly: Time resolved fluorescence resonance energy transfer (TR-FRET) binding assay, BRD4 bromodomain. As to conditions: one of the FRET assays described. On the technique in general: In TR-FRET formats the signal depends on donor and acceptor labels being close together.
On to `Cc1nnn(C)c1-c1cnc2c3ccc(C(C)(C)O)cc3n([C@@H](c3ccc(F)cc3)C3CCOCC3)c2c1` [Example 60], for which the IC50 (in general, the concentration that gives 50% inhibition) was below 5 nM.
In turn, `[2H]C([2H])([2H])c1nnn(C)c1-c1cnc2c3c(NS(=O)(=O)CC)ccc(S(C)(=O)=O)c3n(C(c3ccccc3)C3CCOCC3)c2c1` (centres unmarked) [Example 223] registered an IC50 below 25 nM.
Compound `Cc1noc(C)c1-c1cnc2c3ccc(C(C)(C)O)c(F)c3n(C(CCC(F)(F)F)CCC(F)(F)F)c2c1` [Example 83] gave a half-inhibitory concentration (IC50) below 25 nM.
On the same count and under the same terms, under `Cc1nnn(C)c1-c1cnc2c3ccc(C(C)(C)O)cc3n([C@H](c3ccc(F)cc3)C3CCOCC3)c2c1` [Example 59] stands below 5 nM.
Consider `COCC(C1CCOCC1)n1c2cc(C(C)(C)O)ccc2c2ncc(-c3c(C)nnn3C)cc21` (single isomer, unassigned) [Example 396], for which the IC50 is below 5 nM.
Same read-out and setting: under `Cc1nnn(C)c1-c1cnc2c3ccc(C(C)(C)O)cc3n([C@@H](c3ccc(F)cc3)C3CCOCC3)c2c1` [Example 73] stands below 5 nM; under `COc1cccnc1C(C1CCOCC1)n1c2cc(C(C)(C)O)ccc2c2ncc(-c3c(C)nnn3C)cc21` (centres unmarked) [Example 291], below 5 nM.
`CCCC(CCC)n1c2cc(-c3c(C)noc3C)cnc2c2ccc(C(C)(C)O)c(F)c21` [Example 82] registered a half-maximal inhibitory concentration (IC50) below 25 nM.
`Cc1nnn(C)c1-c1cnc2c3ccc(C(C)(C)O)cc3n(C(CCC(F)(F)F)CCC(F)(F)F)c2c1` [Example 56]: the half-maximal inhibitory concentration (IC50) is below 5 nM.
With `Cc1nnn(C)c1-c1cnc2c3cc(C(=O)N4CC(F)C4)ccc3n([C@H](c3ccccc3)C3CCOCC3)c2c1` [Example 430, 5-[8-(3-Fluoroazetidine-1-carbonyl)-5-[(S)-oxan-4-yl(phenyl)methyl]-5H-pyrido[3,2-b]indol-3-yl]-1,4-dimethyl-1H-1,2,3-triazole], the half-inhibitory concentration (IC50) is below 5 nM.
For the compound `[2H]C([2H])([2H])c1nnn(C)c1-c1cnc2c3ccc(C(C)(C)O)c(F)c3n([C@H](c3ccccc3F)C3CCCOC3)c2c1` (some centres unmarked) [Example 272], the IC50 was below 5 nM.
Take `[2H]C([2H])([2H])c1nnn(C)c1-c1cnc2c3cc(F)c(C(C)(C)O)cc3n(C(c3ncccc3F)C3CCOCC3)c2c1` (single isomer, unassigned) [Example 459]: the IC50 is below 5 nM.
`CCCC(CCC)n1c2cc(C(C)(C)O)ccc2c2ncc(-c3c(C)noc3C)cc21` [Example 8] gave a half-maximal inhibitory concentration (IC50) below 5 nM.
On to `Cc1nnn(C)c1-c1cnc2c3c(NS(=O)(=O)C4CC4)ccc(S(C)(=O)=O)c3n(C(c3ccccc3)C3CCOCC3)c2c1` (centres unmarked) [Example 218], for which the half-inhibitory concentration (IC50) is below 5 nM.
On the same count and under the same terms, under `CCS(=O)(=O)Nc1ccc(S(C)(=O)=O)c2c1c1ncc(-c3c(C)nnn3C)cc1n2[C@H](c1ccccc1)C1CCOCC1` [Example 217] stands below 5 nM; under `Cc1nnn(C)c1-c1cnc2c3ccc(S(C)(=N)=O)cc3n([C@H](c3ccccc3)C3CCOCC3)c2c1` (single isomer, unassigned) [Example 371], below 5 nM; under `COCC(C1CCOCC1)n1c2cc(C(C)(C)O)ccc2c2ncc(-c3c(C)nnn3C)cc21` (single isomer, unassigned) [Example 397], below 25 nM.
The compound `CCCC(CCC)n1c2cc(-c3c(C)nnn3C)cnc2c2ccc(C(C)(C)O)c(F)c21` [Example 75] showed an IC50 below 5 nM.
Turning to `Cc1noc(C)c1-c1cnc2c3ccc(C(C)(C)O)cc3n(C(c3ccccc3)c3ccccc3)c2c1` [Example 3], the concentration for half-maximal inhibition (IC50) is below 5 nM.
Consider `Cc1nnn(C)c1-c1cnc2c3cc(F)c(C(C)(C)O)c(F)c3n([C@H](c3ccccc3)C3CCOCC3)c2c1` [Example 451, 2-[3-(Dimethyl-1H-1,2,3-triazol-5-yl)-6,8-difluoro-5-[(S)-oxan-4-yl(phenyl)methyl]-5H-pyrido[3,2-b]indol-7-yl]propan-2-ol], for which the 50% inhibitory concentration (IC50) was below 5 nM.
Take `Cc1nnn(C)c1-c1cnc2c3ccc(CN(C)C)cc3n([C@H](c3ccccc3)C3CCOCC3)c2c1` [Example 406, {[3-(Dimethyl-1H-1,2,3-triazol-5-yl)-5-[(S)-oxan-4-yl(phenyl)methyl]-5H-pyrido[3,2-b]indol-7-yl]methyl}dimethylamine]: the IC50 is below 5 nM.
Regarding `[2H]C([2H])([2H])c1nnn(C)c1-c1cnc2c3c(S(C)(=O)=O)cccc3n(C(c3ccc(F)cc3)C3CCOCC3)c2c1` (centres unmarked) [Example 270], the IC50 is below 5 nM.
For `Cc1nnn(C)c1-c1cnc2c3c(NS(=O)(=O)CC4CC4)ccc(S(C)(=O)=O)c3n([C@H](c3ccccc3)C3CCOCC3)c2c1` [Example 219], the half-maximal inhibitory concentration (IC50) is below 5 nM.
On the same count and under the same terms, to `Cc1nnn(C)c1-c1cnc2c3ccc(C(C)(C)O)c(F)c3n(C(CCC(F)(F)F)CCC(F)(F)F)c2c1` [Example 74] belongs below 25 nM.
Consider `[2H]C([2H])([2H])c1nnn(C)c1-c1cnc2c3c(OC)cc(C(C)(C)O)cc3n(C(c3ccc(F)cc3)C3CCOCC3)c2c1` (centres unmarked) [Example 275], for which the half-inhibitory concentration (IC50) is below 5 nM.
In turn, `Cc1nnn(C)c1-c1cnc2c3cc(C(=O)N4CC(F)(F)C4)ccc3n([C@H](c3ccccc3)C3CCOCC3)c2c1` [Example 428, 5-[8-(3,3-Difluoroazetidine-1-carbonyl)-5-[(S)-oxan-4-yl(phenyl)methyl]-5H-pyrido[3,2-b]indol-3-yl]-1,4-dimethyl-1H-1,2,3-triazole] gave an IC50 below 5 nM.
On the same count and under the same terms, to `[2H]C([2H])([2H])c1nnn(C)c1-c1cnc2c3ccc(S(C)(=O)=O)cc3n(C(c3ccc(F)cc3)C3CCOCC3)c2c1` (centres unmarked) [Example 265] belongs below 5 nM; to `Cc1nnn(C)c1-c1cnc2c3cc(C(=O)N4CC(O)C4)ccc3n([C@H](c3ccccc3)C3CCOCC3)c2c1` [Example 429, 1-[3-(Dimethyl-1H-1,2,3-triazol-5-yl)-5-[(S)-oxan-4-yl(phenyl)methyl]-5H-pyrido[3,2-b]indole-8-cabonyl]azetidine-3-ol], below 5 nM; to `[2H]C([2H])([2H])c1nnn(C)c1-c1cnc2c3ccc(C(C)(C)O)cc3n(C(c3ccccc3F)C3CCOCC3)c2c1` (centres unmarked) [Example 266], below 5 nM.
In turn, `Cc1nnn(C)c1-c1cnc2c3ccc(S(C)(=N)=O)cc3n([C@H](c3ccccc3)C3CCOCC3)c2c1` (single isomer, unassigned) [Example 372] showed an IC50 below 5 nM.
Compound `CCCC(CCC)n1c2cc(C(C)(C)O)ccc2c2ncc(-c3c(C)nnn3C)cc21` [Example 61] gave a 50% inhibitory concentration (IC50) below 5 nM.

In the next experiment the test system is JJN3R multiple myeloma cell line. The experiment can be described thus: Human tumor xenograft model in mice, JJN3R. It counts as in vivo. As to conditions: Mus musculus, JJN-3R, po, 1 mg/kg, QDx7, read-out: % TGI. From the text: Human Tumor Xenograft Models in Mice
All rodents were obtained from Jackson Laboratory. (Bar Harbor, Me.), and maintained in an ammonia-free environment in a defined and pathogen-free colony. All mice were quarantined approximately 1 week prior to their use for tumor propagation and drug efficacy testing. Mice were fed food and water ad libitum. The animal care program of Bristol-Myers Squibb Pharmaceutical Research Institute is fully accredited by the American Association for Accreditation of Laboratory Animal Care (AAALAC). All experiments were performed in accordance with Bristol-Myers Squibb (BMS) animal test methods and guidelines.
Tumor xenografts were grown and maintained subcutaneously (SC) in NSG (NOD scid IL2 receptor gamma chain knockout) mice (Jackson Lab). Tumors were propagated as subcutaneous transplants using tumor fragments obtained from donor mice.
Preclinical Chemotherapy Trials
The required numbers of animals needed to detect a meaningful response were pooled at the start of the experiment and each was given bilateral subcutaneous implants of two tumor fragments (˜20 mg) with a 13-gauge trocar. Tumors were allowed to grow to the pre-determined size window (tumors outside the range were excluded) and animals were evenly distributed to various treatment and control groups. There were typically 6-8 mice per treatment and control groups, consisting of 10-12 tumors. Treatment of each animal was based on individual body weight. Treated animals were checked daily for treatment related toxicity/mortality. Each group of animals was weighed before the initiation of treatment (WO and then again following the last treatment dose (Wt2). The difference in body weight (Wt2-Wt1) provides a measure of treatment-related toxicity.
Tumor response was determined by measurement of tumors with a caliper twice a week, until the tumors reached a predetermined “target” size of 0.5 gm or 1 gm depending on the tumor type. Tumor weights (mg) were estimated from the formula:
Tumor weight=(length×width^2)÷2
Tumor response criteria are expressed in terms of tumor growth inhibition (% TGI). Tumor growth delay is defined as the difference in time (days) required for the treated tumors (T) to reach a predetermined target size compared to those of the control group (C). For this purpose, the tumor weight of a group is expressed as medium tumor weight (MTW).
Tumor growth inhibition is calculated as follows:
where, Ct=Median control tumor size at end of treatment C0=Median control tumor size at treatment initiation Tt=Median tumor size of treated group at end of treatment T0=Median tumor size of treated group at treatment initiation
Tumor response was also expressed in terms of tumor growth delay and expressed as log cell kill (LCK value), defined as the difference in time (days) required for the treated tumors (T) to reach a predetermined target size compared to those of the control group (C).
Whenever possible, antitumor activity was determined at a range of dose levels up to the maximum tolerated dose (MTD) which is defined as the dose level immediately […] which excessive toxicity (i.e. more than one death) occurred. When death occurred, the day of death was recorded. Treated mice dying prior to having their tumors reach target size were considered to have died from drug toxicity. No control mice died bearing tumors less than target size. Treatment groups with more than one death caused by drug toxicity were considered to have had excessively toxic treatments and their data were not included in the evaluation of a compound's antitumor efficacy.
For administration of BET inhibitors to rodents, compounds were dissolved in […]/10% TPGS/10% Ethanol. BET inhibitors were typically administered orally on a schedule of QDx7 or QDx10 (5 day-on-2 day-off), although other schedules had also been evaluated and shown to be efficacious
With `Cc1nnn(C)c1-c1cnc2c3ccc(C(C)(O)C4CC4)c(F)c3n([C@H](c3ccccc3F)C3CCOCC3)c2c1` (single isomer, unassigned) [Example 436], the inhibition in vivo at 1 mg/kg is 71%.
On to `[2H]C([2H])([2H])c1nnn(C)c1-c1cnc2c3ccc(S(C)(=O)=O)cc3n([C@H](c3ccccc3)C3CCOCC3)c2c1` [Example 263, 5-{7-Methanesulfonyl-5-[(S)-oxan-4-yl(phenyl)methyl]-5H-pyrido[3,2-b]indol-3-yl}-4-(^2H3)methyl-1-methyl-1H-1,2,3-triazole], for which the inhibition in vivo at 1 mg/kg stood at 6%.
Still for that read-out and setting: to `Cc1nnn(C)c1-c1cnc2c3ccc([C@](C)(O)C4CC4)c(F)c3n([C@H](c3ccccc3)C3CCOCC3)c2c1` (single isomer, unassigned) [Example 432] belongs 51%; to `[2H]C([2H])([2H])c1nnn(C)c1-c1cnc2c3ccc([C@](C)(O)C4CC4)c(F)c3n([C@H](c3ccccc3)C3CCOCC3)c2c1` [Example 434, (1R)-1-cyclopropyl-1-{6-fluoro-3-[4-(^2H3)methyl-1-methyl-1H-1,2,3-triazol-5-yl]-5-[(5)-oxan-4-yl(phenyl)methyl]-5H-pyrido[3,2-b]indol-7-yl}ethan-1-ol], 82%.

Staying with this experiment, now noted: Mus musculus, JJN-3R, po, 4 mg/kg, QDx7, read-out: % TGI.
In the case of `Cc1nnn(C)c1-c1cnc2c3ccc(C(C)(O)C4CC4)c(F)c3n([C@H](c3ccccc3F)C3CCOCC3)c2c1` (single isomer, unassigned) [Example 436], the inhibition in vivo at 4 mg/kg came out at 116%.
For `[2H]C([2H])([2H])c1nnn(C)c1-c1cnc2c3ccc(S(C)(=O)=O)cc3n([C@H](c3ccccc3)C3CCOCC3)c2c1` [Example 263, 5-{7-Methanesulfonyl-5-[(S)-oxan-4-yl(phenyl)methyl]-5H-pyrido[3,2-b]indol-3-yl}-4-(^2H3)methyl-1-methyl-1H-1,2,3-triazole], the inhibition in vivo at 4 mg/kg was 52%.
On the same count and under the same terms, under `Cc1nnn(C)c1-c1cnc2c3ccc([C@](C)(O)C4CC4)c(F)c3n([C@H](c3ccccc3)C3CCOCC3)c2c1` (single isomer, unassigned) [Example 432] stands 102%.

Values taken from patent publication US20160318928A1, “TRICYCLIC COMPOUNDS AS ANTICANCER AGENTS” (BRISTOL-MYERS SQUIBB COMPANY, priority 2013, published 2016).
